One data set relates to neutrophils. Put plainly: zebrafish tail fin wounding assay, neutrophil migration to wounded site. As to conditions: for migration of neutrophils upon tail fin wounding: Example 2, PPT 50 μM, F1, Rh1, Rg1 100 μM, Bec positive control, 3 dpf; for reduction in neutrophil migration in presence of Gba2 inhibitor MZ31: MZ31 (10 μM) co-treatment; for migration of neutrophils towards the wounded site: 4 h after wounding. The class given is in vivo, zebrafish (Danio rerio). As for the experimental part:
Zebrafish (Danio rerio) were maintained and handled according to the guidelines from the Zebrafish Model Organism Database (http://zfin.org) and in compliance with the directives of the local animal welfare committee of Leiden University. Zebrafish were exposed to a 14 h light and 10 h dark cycle to maintain circadian rhythmicity. Fertilization was performed by natural spawning at the beginning of the light period. […] The following zebrafish lines were used in this study: the double transgenic line Tg(mpx:GFP^i114/mpeg1:mCherry^umsF001), in which neutrophils and macrophages are fluorescently labeled (green and red, respectively), and the Tg(9xGCRE-HSV.UI23:EGFP)^ia20 reporter line, in which the gene encoding enhanced green fluorescent protein (EGFP) is driven by a GRE-containing promoter.
For the tail fin wounding experiments, 20 larvae at 2 or 3 days post-fertilization (dpf) were utilized for each experimental group. For wounding, larvae were anesthetized in egg water containing 0.02% buffered aminobenzoic acid ethyl ester (tricaine; Sigma-Aldrich). Larvae were placed on Petri dishes coated with 2% agarose under a Leica M165C stereomicroscope (Leica Microsystems, Wetzlar, Germany), and the tails were partly amputated using a 1-mm sapphire blade (World Precision Instruments, Sarasota, FL, USA). For quantification of leukocyte migration, larvae were fixed overnight in 4% paraformaldehyde (PFA) at 4° C. The next day, fixed larvae were washed with Phosphate Buffered Saline (PBS) containing 0.1% Tween 20, and stored at 4° C. until imaging.
The macrophages were detected based on their red (mCherry) fluorescence, and neutrophils based on their green (EGFP) fluorescence. To quantify the number of macrophages and neutrophils recruited to the wounded area, the cells in a defined area of the tail were determined by blinded manual counting.
Zebrafish (Danio rerio) were maintained and handled according to the guidelines from the Zebrafish Model Organism Database (http://zfin.org) and in compliance with the directives of the local animal welfare committee of Leiden University. Zebrafish were exposed to a 14 h light and 10 h dark cycle to maintain circadian rhythmicity. Fertilization was performed by natural spawning at the beginning of the light period. […] The following zebrafish lines were used in this study: AB/TL wild type, the transgenic lines Tg(mpx:GFP^i114/mpeg1:mCherry^umsF001)[14, 15], and Tg(9xGCRE-HSV.UI23:EGFPia^20)[16], and the mutant lines grs357[20].
For the tail fin wounding experiments, 2- or 3-days post-fertilization (dpf) larvae were anesthetized in egg water containing 0.02% buffered aminobenzoic acid ethyl ester (tricaine; Sigma-Aldrich). Larvae were placed in Petri dishes coated with 2% agarose under a Leica M165C stereomicroscope (Leica Microsystems, Wetzlar, Germany), and the tails were partly amputated using a 1-mm sapphire blade (World Precision Instruments, Sarasota, FL, USA).
In experiments in which the leukocyte migration was used as a readout, larvae were subjected to treatment with chemicals as indicated, starting at 2 h before the amputation (pretreatment), and treatment was continued for 4 h after the tail fin amputation (20 larvae per group, unless indicated otherwise). In some experiments, a 24 h treatment with MZ31 (10 μM) was started at 2 dpf, and these treatments were continued during the pretreatment and treatment with the other chemicals. At 4 h after amputation, the larvae were fixed in 4% paraformaldehyde (PFA) overnight at 4° C. The next day, fixed larvae were washed with Phosphate Buffered Saline (PBS) containing 0.1% Tween 20 and stored at 4° C. until imaging. […] The macrophages were detected based on red (mCherry) fluorescence and neutrophils on their green (EGFP) fluorescence. To quantify the number of macrophages and neutrophils recruited to the wounded area, the cells in a defined area of the tail were determined by blinded manual counting. […]

A further data set has as its system zebrafish embryos. As to the kind of experiment: Fish Embryo Acute Toxicity Test (FET). As to conditions: 0-120 hpf.
In the next data set the test system is il1b. The conditions noted are these: previously shown, ref [17]; cited from earlier work.
The test system of another data set is MMP9. Put plainly: qPCR MMP9 expression in HeLa cells. Type of data set: cell-based, human. As to conditions: beclomethasone 1 μM, Rg1 20 μM or combination; for MMP9 expression, long-term: 30 h. Here is the method:
HeLa (human cervical cancer) cells were cultured in Dulbecco's Modified Eagle's (DMEM) High Glucose (HG) medium without phenol red supplemented with 10% Fetal Calf Serum (FCS) and 10% Glutamax (Sigma-Aldrich). The cells were maintained at 37° C. and 5% CO2. At 24 h before adding the treatment, the medium was replaced by DMEM HG with 10% charcoal-inactivated serum and 10% Glutamax (Sigma-Aldrich). The cells were exposed to short- and long-term compound treatments. […] Subsequently, TNF-α (10 ng/ml) was added along with the compound treatments for 6 h (this last step was not added in the actinomycin-D and cycloheximide experiments).
To determine levels of gene expression in zebrafish larvae, 3 dpf larvae were used in both wounded and non-wounded conditions, and after short- and long-term treatments. Groups of 15 larvae were collected in TRIzol reagent (ThermoFisher) and total RNA was isolated using miRNeasy mini kit (Qiagen, Hilden, Germany). For experiments in HeLa cells, cells were seeded in 6 well plates and after treatment, the cells were removed from the wells using TRIzol reagent and mRNA was isolated using miRNeasy mini kit (Qiagen) according to the manufacturer's instructions. The RNA samples were DNAse-treated utilizing the DNA-free™ DNA Removal Kit (ThermoFisher Scientific). The cDNA synthesis was performed using the iScript cDNA synthesis kit (Bio-Rad Laboratories, Hercules, CA, USA) using 1 μg of RNA per sample. For qPCR, 10 μM of forward primer and 10 μM of reverse primer, 12.5 μl of IQ SYBR Green Supermix (Bio-Rad Laboratories), and 2 μl of cDNA were added to the qPCR reaction mixture. […] Cycle threshold values (Ct values, i.e. the cycle numbers at which a threshold value of the fluorescence intensity was reached) were determined for each sample. […] The fold change per sample (compared to the respective control group) was calculated using the […]Ct method.
(Real-time PCR tracks product formation cycle by cycle.)

SMILES strings stand for the structures.

Method for zebrafish embryos: Fish Embryo Acute Toxicity Test (FET) was performed to determine the tolerated doses of the studied compounds. […] A range of three test concentrations (100, 120, and 150 μM) of Rg1, Rh1, and F1 and (25, 50, and 75M) of PPT was used. […] Stock solutions were made in DMSO, and final dilutions in egg water (60 μg/mL Instant Ocean Sea salts and 0.0025% methylene blue), such that the final DMSO concentration were 0.01%. The following controls were used: a negative control (nC, egg water), a solvent control (sC, 0.01% DMSO in egg water), and positive control (pC), 4 mg/L 3,4-dichloroaniline (Sigma-Aldrich, St. Louis, MO, USA) in egg water.
Embryos were collected around at 1.5 hpf and distributed over standard twenty-four well plates (10 embryos per well), with each well containing 2 mL of test solution. […] Five 24-well plates were prepared, each with 3 wells containing the Rg1, F1, or Rh1 solutions (100, 120, 150 μM), 3 wells containing the PPT (25, 50, and 75 μM), two for nC and sC, and one for pC (on each plate, 7 wells remained empty). All solutions were refreshed daily.
The plates were kept at a temperature between 26 and 27° C. and exposed to a 12 h light and 12 h dark cycle. At 96, and 120 hpf, the average survival rate (in %) for all experimental groups was determined. Additionally, hatching was recorded at 48 and 72 hpf. Survival rates for the studied compound and pC-treated groups from the five individual plates were averaged.

Turning to `CC(C)=CCC[C@](C)(O)[C@H]1CC[C@]2(C)[C@@H]1[C@H](O)C[C@@H]1[C@@]3(C)CC[C@H](O)C(C)(C)[C@@H]3[C@@H](O[C@@H]3O[C@H](CO)[C@@H](O)[C@H](O)[C@H]3O)C[C@]12C` [Rh1], in the data set on neutrophils, the “migration of neutrophils upon tail fin wounding” value was “inhibited the migration of neutrophils” and the “reduction in neutrophil migration in presence of Gba2 inhibitor MZ31” value (shortened to “reduction … of Gba2 inhibitor MZ31”) is recorded as “did not affect the reduction in neutrophil migration”. In the data set with zebrafish embryos, the “concentration until which no effects on hatching and survival were observed” value came out at 100 µM; the “concentration with minimal effects on hatching and survival” value came to 120 µM.
As for `CC(C)=CCC[C@](C)(O)[C@H]1CC[C@]2(C)[C@@H]1[C@H](O)C[C@@H]1[C@@]3(C)CC[C@H](O)C(C)(C)[C@@H]3[C@@H](O)C[C@]12C` [PPT, Protopanaxatriol], in the data set with neutrophils, the “migration of neutrophils upon tail fin wounding” value is listed as “inhibited the migration of neutrophils” and the “reduction … of Gba2 inhibitor MZ31” value is recorded as “did not affect the reduction in neutrophil migration”.
The matching figures for `CC(C)=CCC[C@](C)(O[C@@H]1O[C@H](CO)[C@@H](O)[C@H](O)[C@H]1O)[C@H]1CC[C@]2(C)[C@@H]1[C@H](O)C[C@@H]1[C@@]3(C)CC[C@H](O)C(C)(C)[C@@H]3[C@@H](O)C[C@]12C` [F1]: “inhibited the migration of neutrophils” and “did not affect the reduction in neutrophil migration”.
With `CC(C)=CCC[C@](C)(O[C@@H]1O[C@H](CO)[C@@H](O)[C@H](O)[C@H]1O)[C@H]1CC[C@]2(C)[C@@H]1[C@H](O)C[C@@H]1[C@@]3(C)CC[C@H](O)C(C)(C)[C@@H]3[C@@H](O[C@@H]3O[C@H](CO)[C@@H](O)[C@H](O)[C@H]3O)C[C@]12C` [Rg1, (3β,6α, 12β)-3,12-Dihydroxydammar-24-ene-6,20-diyl bis-β-D-glucopyranoside], the “il1b expression after wounding” value in the data set on il1b is given as “transrepressed”. Further, in the data set with neutrophils, the “migration of neutrophils upon tail fin wounding” value was “inhibited the migration of neutrophils” and the “reduction … of Gba2 inhibitor MZ31” value is reported as “this inhibitor abolished the effect of the polyglycosylated ginsenoside Rg1”. For the same molecule, the “migration of neutrophils towards the wounded site” value with neutrophils (Rg1 40 μM and lower) was “did not alter the neutrophil migration”. The “MMP9 expression, short-term” value with MMP9 (6 h) is “slightly suppressed”. Moreover, the “MMP9 expression, long-term” value with MMP9 is “more strongly after long-term treatment”. In the data set with zebrafish embryos, the “concentration until which no effects on hatching and survival were observed” value came to 100 µM; the “concentration with minimal effects on hatching and survival” value worked out at 120 µM.
On to `C[C@H]1C[C@H]2[C@@H]3CCC4=CC(=O)C=C[C@]4(C)[C@@]3(Cl)[C@@H](O)C[C@]2(C)[C@@]1(O)C(=O)CO` [beclomethasone, reference compound], for which the “il1b expression after wounding” value in the data set on il1b was “transrepressed”. Also, in the data set with neutrophils, the “migration of neutrophils upon tail fin wounding” value is “inhibited the migration of neutrophils”. Moreover, the “migration of neutrophils towards the wounded site” value with neutrophils (beclomethasone 20 μM and 40 μM) is “did significantly reduce the neutrophil migration”; with neutrophils (beclomethasone lower than 10 μM) it was “did not affect the migration of neutrophils towards the wounded site”. Besides, in the data set on MMP9, the “MMP9 expression, long-term” value is “the suppressive effects of beclomethasone were significantly reduced after long-term treatment”.

The record behind these values is US20260306525A1, “COMBINATION THERAPY GLUCOCORTICOIDS AND GINSENOSIDE” (FYTAGORAS B.V., priority 2023, published 2026).
